Experimental data from PMC3098721 (Molecular microbiology, 2010).

Molecular target: PqsH (MBP-PqsH) (Pseudomonas aeruginosa, UniProt Q02N79)
Assay: PQS fluorescence after ethyl acetate extraction, Michaelis-Menten fit
Format: biochemical
Details: NADH and O2 constant at saturating levels; pH 8.0

Sequence of PqsH (MBP-PqsH) (Q02N79 2-382): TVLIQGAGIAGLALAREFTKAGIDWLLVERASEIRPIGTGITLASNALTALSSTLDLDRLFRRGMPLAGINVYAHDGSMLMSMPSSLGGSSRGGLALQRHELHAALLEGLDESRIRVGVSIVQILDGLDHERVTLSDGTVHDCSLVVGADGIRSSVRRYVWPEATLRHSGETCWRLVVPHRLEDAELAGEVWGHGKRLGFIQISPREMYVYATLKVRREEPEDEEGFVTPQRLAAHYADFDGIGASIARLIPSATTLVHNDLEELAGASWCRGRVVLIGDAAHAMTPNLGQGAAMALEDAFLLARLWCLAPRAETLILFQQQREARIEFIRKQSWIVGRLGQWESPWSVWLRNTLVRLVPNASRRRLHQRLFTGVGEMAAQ

With `CCCc1cc(=O)c2ccccc2[nH]1` [C3-HHQ] the Km was “almost entirely due to elevated Km values”.
